Experimental data as given in PubChem BioAssay (NCI).
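Briefly, cells in 96-well plates were exposed to five compound concentrations for 48 h, and endpoints were estimated by linear interpolation. TGI denotes the concentration required for complete inhibition of growth.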 Peptide text beside a SMILES is read from it. * marks the point of attachment. Boc = CC(C)(C)OC(=O)*; OBn = c1ccc(CO*)cc1

Tests used:
Assay in all cases: inhibition of tumour cell growth, NCI panel, 48 h
[1] = test system: EKVX NSCLC
[2] = test system: SK-MEL-5 melanoma
[3] = test system: SNB-19 CNS
[4] = test system: U251 CNS
[5] = test system: A498 renal
[6] = test system: HL-60(TB) leukemia
[7] = test system: IGROV1 ovarian
[8] = test system: HOP-92 NSCLC
[9] = test system: M14 melanoma
[10] = test system: MDA-MB-435
[11] = test system: BT-549 breast
[12] = test system: TK-10 renal
[13] = test system: MOLT-4 leukemia

Structure (SMILES)	TGI [1] [µM]	TGI [2] [µM]	TGI [3] [µM]	TGI [4] [µM]	TGI [5] [µM]	TGI [6] [µM]	TGI [7] [µM]	TGI [8] [µM]	TGI [9] [µM]	TGI [10] [µM]	TGI [11] [µM]	TGI [12] [µM]	TGI [13] [µM]
CN(C)CCCCN1c2ccccc2Sc2cc(N=[N+]=[N-])ccc21	15.5	3.18	19.9	4.27	22.4	3.94	3.43	10.5	3.08	3.09	22.9	4.86	4.3
CCOC(=O)C1C(c2ccc(OC)cc2)c2c([nH][nH]c2=O)CC1(O)OCC (stereo not given)	> 100	> 100	> 100	> 100	> 100	> 100	> 100	> 100	> 100	> 100	> 100	> 100	> 100
CC1=NN(C(=O)c2ccccc2O)C(=O)/C1=C/c1ccccc1O	41.6	14.2	> 100	> 100	0.124	3.62	3.63	28.5	48.4	> 100	50	> 100	51
COC(=O)C1=C(\c2ccccc2)c2ccccc2C(=O)N(C2CCCCC2)/C=C\1	> 100	24.3	> 100	63.1	> 100	> 100	> 100	95.2	> 100	45.1	74.6	> 100	> 100
NC(=O)C(c1ccccc1)N1OC2C(=O)N(c3cccc4ccccc34)C(=O)C2C1c1c2ccccc2c(Cl)c2ccccc12 (stereo not given)	30	11.2	18.9	15.9	37.4	11.2	39.8	32	15.8	22.7	22	22.8	9.03
[N-]=[NH+]CC(=O)OC(COCc1ccccc1)COCc1ccccc1	> 100	> 100	> 100	> 100	> 100	> 100	> 100	> 100		> 100	> 100	> 100	> 100
COc1cccc2c(Nc3ccc(S(=O)(=O)NC(C)=O)cc3)c3ccc([N+](=O)[O-])cc3nc12	> 100	> 78.3	> 100	> 53.5	> 100	> 100	> 86.7	> 100	> 100	> 65.2	> 56	> 56.7	80.5
Nc1cn(Cc2ccccc2)c2nc(/C=C3/C=CC=CC3=O)c(O)n12	> 100	> 100	> 100	> 100	> 100	> 100	> 100	> 100	> 100	> 100	> 100	> 100	> 100
CC(NC(=O)CNC(=O)OC(C)(C)C)C(=O)NC(Cc1ccccc1)C(=O)OCc1ccccc1 (stereo not drawn) (Boc-Gly-Ala-Phe-OBn; configuration not given here)	> 100	> 100	> 100	> 100	> 100	> 100	> 100	> 100	> 100	> 100	> 100	> 100	> 100
CCOC(=O)C(NC(=O)CC(C)C)(Nc1ccc(S(=O)(=O)Nc2nc(C)cc(C)n2)cc1)C(F)(F)F (stereo not given)	> 100	> 100	> 100	> 100	> 100	> 100	> 100	> 100	> 100	> 100	> 100	> 100	> 100
COc1ccc(C(c2c[nH]c3ccc(Br)cc23)c2c[nH]c3ccc(Br)cc23)cc1	1.49	1.12	1.76	0.557	2.29	0.346	0.803	2.07	0.7	0.42	3.16	2.27	0.478
O=C(CCc1ccc(O)cc1)NCCc1cccc(OCc2ccccc2)c1	> 100	32.7	> 100	64.9	> 100	50	> 100	70.9	36.2	38.6	45.6	79.5	48.4
CCCCCC(CO)C(O)(C(F)(F)F)C(F)(F)F (stereo not given)	> 10	> 10	> 10	> 10	> 10	> 10	> 10	> 10	> 10	> 10	> 10	> 10	> 10
C=C1CC(C)(COc2ccc3ccc(=O)oc3c2)OC1=O (stereo not given)	26.7	6.65	51.9	27.1	23.1	2.57	10.8	4.4	4.97	9.35	2.65	4.29	2.46
COc1cc(Nc2cnc3cc(F)c(F)cc3n2)cc(OC)c1	> 100	> 100	> 100	> 100	> 100	> 100	> 100	> 100	> 100	> 100	> 100	> 100	> 100
CC1(C)CCCCCCC2OC2CCCCCC(C)(C)C1=O (stereo not given)	> 100	50.2	> 100	63.2	> 100	57	> 100	> 81	> 100	> 100	> 76.6	> 100	61.2
CCSC1=N/C(=C\c2ccco2)C(Cl)=N1	> 100	> 100	> 100	> 100	> 100	> 100	> 100	> 100	> 100	> 100	> 100	> 100	> 100
